# Measurements from US20250000868A1, “USE OF ADENOSINE A2B RECEPTOR AS TARGET IN DRUGS FOR PREVENTION AND/OR TREATMENT OF PRURITUS” (The Fourth Affiliated Hospital, ZJU, priority 2023, published 2025).
# Entries after “also recorded” stand apart in the source; their conditions may differ.
# Legend:
# adenosine A2B receptor [1] = target: T1, adenosine A2B receptor (Mus musculus, UniProt Q60614); experiment: Chloroquine-induced scratching behavioral experiment; assay type: in vivo; details: for number of chloroquine-induced scratches: within 30 min before chloroquine 200 μg/50 μL s.c. neck, scratches recorded within 30 min
# T1 construct: from tissue; host or cells: living mouse; intrathecal dosing, receptor expressed in dorsal root ganglion neurons
# T1 sequence (Q60614 1-332): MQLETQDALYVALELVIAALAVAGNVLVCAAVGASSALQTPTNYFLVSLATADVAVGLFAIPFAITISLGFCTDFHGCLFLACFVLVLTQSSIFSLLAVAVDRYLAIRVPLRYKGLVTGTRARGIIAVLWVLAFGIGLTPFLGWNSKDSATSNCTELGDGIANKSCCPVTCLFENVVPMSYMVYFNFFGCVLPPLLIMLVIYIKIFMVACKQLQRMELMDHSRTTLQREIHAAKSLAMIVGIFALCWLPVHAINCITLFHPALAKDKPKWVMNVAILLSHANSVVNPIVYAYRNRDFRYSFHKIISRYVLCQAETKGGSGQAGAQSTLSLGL
# Protocol: (§1) Refer to the prior art (Jang et al., 2015) for scratching behavior. The specific operation method was as follows: each mouse neck hair was shaved two days before the experiment, and the mouse was housed in a transparent organic plastic chamber to receive acclimatization training for two consecutive days, at least 1 h a day. Adjacent transparent plastic chambers were separated by a piece of white paper to eliminate mutual interference between mice. On the day of the experiment, chloroquine (200 μg/50 μL) was subcutaneously injected into the mouse neck and the mice were immediately placed in the transparent plastic chamber to record scratching behaviors within 30 min using a camera. One effective scratch was defined as follows: a mouse lifted its hind leg to scratch the skin at the […] injection site and put the hind leg down, and despite the number of scratches in the interval between lifting the hind leg and putting it down, an effective scratching behavior was considered. To evaluate the antipruritic effect of PSB-603, the mice received an intrathecal injection of PSB-603 (the administration dose was 10 μL, and the dosing concentration was 1, 10 or 20 μM) within 30 min before chloroquine injection.
# (§2) Using a pharmacological method, the adenosine A2B receptor activity is blocked by intrathecal injection of selective adenosine A2B receptor antagonist PSB-603. […] Moreover, alleviating the effect of PSB-603 on scratch is related to the dose. […] Therefore, inhibition of the adenosine A2B receptor is an effective way to treat pruritus.
# adenosine A2B receptor [2] = target: T1, adenosine A2B receptor; experiment: Histamine-induced scratching behavioral experiment; assay type: in vivo; details: for number of histamine-induced scratches: within 30 min before histamine 250 μg/50 μL s.c. neck, scratches recorded within 30 min
# Protocol: as §1, with “histamine (250” for “chloroquine (200”, “1 or” for “1,”, “10” for “10 or 20”, “histamine” for “chloroquine”
# as §2
# [3] = PSB-603 intrathecal 10 μL at 10 μM
structure (smiles),measurement,setting,value
CCCn1c(=O)[nH]c2nc(-c3ccc(S(=O)(=O)N4CCN(c5ccc(Cl)cc5)CC4)cc3)[nH]c2c1=O [PSB-603],number of chloroquine-induced scratches,adenosine A2B receptor [1]; [3],reduces the number of chloroquine-induced scratches
same,number of chloroquine-induced scratches,adenosine A2B receptor [1]; PSB-603 intrathecal 10 μL at 20 μM,reduces the number of chloroquine-induced scratches
same,"chloroquine-induced scratching behaviors, overall effect","adenosine A2B receptor [1]; intrathecal injection of PSB-603 in advance, 1, 10 or 20 μM, FIG. 4",dose-dependent inhibition; also recorded: can effectively prevent chloroquine-induced scratching behaviors
same,number of histamine-induced scratches,adenosine A2B receptor [2]; [3],reduces the number of histamine-induced scratches
same,number of histamine-induced scratches,adenosine A2B receptor [2]; PSB-603 intrathecal 10 μL at dose of 1 μM,the number of animal scratches cannot be reduced
same,"histamine-induced scratching behaviors, overall effect","adenosine A2B receptor [2]; intrathecal injection of PSB-603 in advance, 1 or 10 μM, FIG. 3C",dose-dependent inhibition; also recorded: can effectively prevent histamine-induced scratching behaviors
